Data set [1] is described as follows: Solubility Determination Assay (PBS pH 1.6 and pH 7.4). It is filed as physicochemical. As to conditions: PBS buffer, aqueous buffer, kinetic from dmso stock, 2 hours shaking. As for the experimental part: Example 31: Solubility Determination Assay
The stock solutions of test compounds and control compound progesterone were prepared in DMSO at the concentrations of 10 mM. 15 μL of stock solution (10 mM) of each sample was placed in order into their proper 96-well rack. 485 μL of PBS pH 1.6 and pH 7.4 were added into each vial of the cap-less Solubility Sample plate. The assay was performed in singlet. One stir stick was added to each vial and then the vial was sealed using a molded PTFE/Silicone plug. The solubility sample plates were then transferred to the Eppendorf Thermomixer Comfort plate shaker and shaken at 25° C. at 1100 rpm for 2 hours. After completion of the 2 hours, plugs were removed and the stir sticks were removed using a big magnet. The samples from the Solubility Sample plate were transferred into the filter plate. Using the Vacuum Manifold, all the samples were filtered. An aliquot of 5 μL was taken from the filtrate followed by addition of 495 μL of a mixture of H2O and acetonitrile containing internal standard (1:1). A certain proportion of ultrapure water was used to dilute the diluent according to the peak shape. The dilution factor was changed according to the solubility values and the LC-MS signal response.
From the 10 mM DMSO STD plate, 6 μL was transferred into the remaining empty plate, and then 194 μL of DMSO were added to that plate to have a STD concentration of 300 μM. From the 300 μM DMSO STD plate, 5 μL were transferred into the remaining empty plate, and then 495 μL of a mixture of H2O and acetonitrile containing internal standard (1:1) were added to that plate to have a final STD concentration of 3 μM. A certain proportion of ultrapure water was used to dilute the diluent according to the peak shape. The concentrations of the standard samples were changed according to the LC-MS signal response.
The plate was placed into the well plate autosampler. The samples were evaluated by LC-MS/MS analysis.
All calculations were carried out using Microsoft Excel.
The filtrate was analyzed and quantified against a standard of known concentration using LC coupled with mass spectral peak identification and quantitation. Solubility values of the test compound and control compound were calculated as follows: […]
Any value of the compounds that was not within the specified limits was rejected and the experiment was repeated.
“+++” indicates a solubility value equal to or greater than […] “++” indicates a solubility value between 0.1 and 1 μM and “+” indicates a solubility value less than 0.1 μM.

Data set [2] has as its target T1, AHR (Homo sapiens, UniProt P35869).
T1 construct: other cell line with a DRE-luciferase reporter stably transfected; endogenous in cells; host or cells: Human HepG2 liver carcinoma AhR-Lucia reporter cells
T1 sequence (P35869 11-848): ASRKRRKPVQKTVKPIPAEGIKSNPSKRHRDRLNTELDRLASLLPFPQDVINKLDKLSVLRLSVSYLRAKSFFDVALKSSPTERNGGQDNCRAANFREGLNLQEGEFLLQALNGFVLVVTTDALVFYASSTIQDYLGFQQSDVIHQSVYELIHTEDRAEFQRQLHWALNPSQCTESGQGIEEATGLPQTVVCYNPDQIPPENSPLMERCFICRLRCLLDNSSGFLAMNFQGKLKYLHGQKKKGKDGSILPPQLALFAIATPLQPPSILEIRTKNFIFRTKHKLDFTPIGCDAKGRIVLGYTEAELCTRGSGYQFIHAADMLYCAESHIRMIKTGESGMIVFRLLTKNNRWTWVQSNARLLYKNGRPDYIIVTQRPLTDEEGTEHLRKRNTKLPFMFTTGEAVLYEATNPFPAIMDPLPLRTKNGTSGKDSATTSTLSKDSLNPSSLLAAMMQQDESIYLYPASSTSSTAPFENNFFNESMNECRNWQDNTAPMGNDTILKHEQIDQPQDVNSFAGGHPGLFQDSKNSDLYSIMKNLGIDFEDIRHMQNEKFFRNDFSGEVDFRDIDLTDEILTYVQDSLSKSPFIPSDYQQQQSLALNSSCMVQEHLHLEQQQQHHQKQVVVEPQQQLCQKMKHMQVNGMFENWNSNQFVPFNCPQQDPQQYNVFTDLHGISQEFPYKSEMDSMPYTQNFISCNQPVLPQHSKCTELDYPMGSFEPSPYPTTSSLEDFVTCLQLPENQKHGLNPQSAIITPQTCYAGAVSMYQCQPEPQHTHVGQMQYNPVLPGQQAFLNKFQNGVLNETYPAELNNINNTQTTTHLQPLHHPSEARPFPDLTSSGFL
Nature of the data set: DRE-Luciferase Reporter Assay (HepG2 AhR-Lucia reporter cells). In kind it is cell-based. Conditions: AHR activating ligand at its EC50, luciferase read-out, read-out: HEPG2 Luc IC50. On the technique in general: Reporter assays use an easily measured gene product as a stand-in for the process of interest.

Where [3] appears, read: PBS pH 1.6, 25° C., read-out: Aq. Solubility at pH = 1.6.
Where [4] appears, read: PBS pH 7.4, 25° C., read-out: Aq. Solubility at pH = 7.4.

Molecules are shown by their SMILES. ≈ marks a conversion by molar mass, not a printed value. Like-named read-outs stand apart in the source and are kept apart here. Where only a bound is given, the exact number is not on record here.

The term solubility denotes the dissolved amount per volume that the medium holds. By IC50 is commonly meant the concentration that gives 50% inhibition. Regarding `Cc1ccccc1-c1ccc2nc(NC(=O)c3ccccn3)sc2n1` [Product 8, N-(5-(o-tolyl)thiazolo[5,4-b]pyridin-2-yl)picolinamide], the values for the solubility at 2 h in data set [1] (setting [3]) and in data set [1] (setting [4]) were 0.1 to 1 µM (≈ 0.0346 to 0.346 µg/mL) and under 0.1 µM, respectively. In data set [2], the IC50 is under 100 nM.
Take `COc1ccccc1-c1ccc2nc(NC(=O)c3ccccn3)sc2n1` [Product 12, N-(5-(2-methoxyphenyl)thiazolo[5,4-b]pyridin-2-yl)picolinamide]: the solubility at 2 h in data set [1] (setting [3]) and in data set [1] (setting [4]) was 0.1 to 1 µM (≈ 0.0362 to 0.362 µg/mL) in each case. In data set [2], the IC50 was under 100 nM.
On to `Cc1ccccc1-c1ccc2nc(NC(=O)c3ccnn3C)sc2n1` [Product 15, 1-Methyl-N-(5-(o-tolyl)thiazolo[5,4-b]pyridin-2-yl)-1H-pyrazole-5-carboxamide], for which the solubility at 2 h in data set [1] (setting [3]) is 0.1 to 1 µM (≈ 0.0349 to 0.349 µg/mL); in data set [1] (setting [4]), at least 1 µM. The IC50 in data set [2] is under 100 nM.
Taken in the same sequence, the figures for `CN(C)c1ccccc1-c1ccc2nc(NC(=O)c3ccnn3C)sc2n1` [Product 18, N-(5-(2-(dimethylamino)phenyl)thiazolo[5,4-b]pyridin-2-yl)-1-methyl-1H-pyrazole-5-carboxamide] were at least 1 µM, at least 1 µM and under 100 nM.
For `COc1ccccc1-c1ccc2nc(NC(=O)c3ccnn3C)sc2n1` [Product 25, N-(5-(2-methoxyphenyl)thiazolo[5,4-b]pyridin-2-yl)-1-methyl-1H-pyrazole-5-carboxamide] the same measures were at least 1 µM, at least 1 µM and under 100 nM.
Taken in the same sequence, the figures for `Cc1ccccc1-c1ccc2nc(NC(=O)N3CCOCC3)sc2n1` [Product 39, N-(5-(o-tolyl)thiazolo[5,4-b]pyridin-2-yl)morpholine-4-carboxamide] were at least 1 µM, at least 1 µM and under 100 nM.
Take `Cn1ncnc1C(=O)Nc1cnc2cc(-c3cc(F)ccc3C(F)F)[nH]c2c1` [Product 47]: the solubility at 2 h in data set [1] (setting [3]) was at least 1 µM; in data set [1] (setting [4]) it was 0.1 to 1 µM (≈ 0.0386 to 0.386 µg/mL). Further, in data set [2], the 50% inhibitory concentration (IC50) was under 100 nM.

Values taken from patent publication US20230234967A1, “Fused Azole Heterocycles as AHR Antagonists” (Senda Biosciences, Inc., priority 2021, published 2023).
